For one data set, the system named is Tetranychus urticae. Description: Tetranychus urticae spray test, OP-resistant. It counts as in vivo. Particulars: foliar, 144 h, bean leaf discs, after 6 days, read-out: efficacy. How it is done:
(§1) To produce a suitable active ingredient preparation, 1 part by weight of active ingredient is dissolved with the stated parts by weight of solvent and made up with water containing an emulsifier concentration of 1000 ppm until the desired concentration is attained. To produce further test concentrations, the preparation is diluted with emulsifier-containing water. Discs of bean leaves (Phaseolus vulgaris) infested with all stages of the greenhouse red spider mite (Tetranychus urticae) are sprayed with an active ingredient preparation of the desired concentration. After 6 days, the efficacy in % is determined. 100% means that all the spider mites have been killed; 0% means that no spider mites have been killed.

A short description of data set [1]: log P by HPLC on reversed-phase column (EEC Directive 79/831 Annex V.A8). It counts as physicochemical. Particulars: reversed-phase C18 HPLC column; pH 7.8, aqueous ammonium hydrogencarbonate/acetonitrile; 55° C.; read-out: log P (neutral). On the procedure: The log P values are measured according to EEC Directive 79/831 Annex V.A8 by HPLC (high-performance liquid chromatography) on a reversed-phase column (C 18). Temperature: 55° C. The LC-MS determination in the acidic range is effected at pH 2.7 using 0.1% aqueous formic acid and acetonitrile (contains 0.1% formic acid) as eluents; linear gradient from 10% acetonitrile to 95% acetonitrile. Called log P (HCOOH) in the table. LC-MS determination in the neutral range is effected at pH 7.8 with 0.001 molar aqueous ammonium hydrogencarbonate solution and acetonitrile as eluents; linear gradient from 10% acetonitrile to 95% acetonitrile. Called log P (neutral) in the table. Calibration is carried out using unbranched alkan-2-ones (having 3 to 16 carbon atoms) with known log P values (log P values determined on the basis of the retention times by linear interpolation between two successive alkanones).

For another data set, the system named is Phaedon cochleariae. Description: Phaedon cochleariae spray test. Particulars: foliar, 168 h, larvae on Chinese cabbage leaf discs, after 7 days, read-out: efficacy. It is filed as in vivo. How it is done: as §1, with “Chinese cabbage” for “bean”, “(Brassica pekinensis)” for “(Phaseolus vulgaris) infested with all stages of the greenhouse red spider mite (Tetranychus urticae)”, “concentration and, after drying, populated with larvae of the mustard beetle (Phaedon cochleariae).” for “concentration.”, “7” for “6”, “beetle larvae” for “spider mites”

In the next data set the test system is Spodoptera frugiperda. Description: Spodoptera frugiperda spray test. Particulars: foliar, 168 h, caterpillars on maize leaf discs, after 7 days, read-out: efficacy. It counts as in vivo. On the procedure:
To produce a suitable active ingredient preparation, 1 part by weight of active ingredient is dissolved with the stated parts by weight of solvent and made up with water containing an emulsifier concentration of 1000 ppm until the desired concentration is attained. To produce further test concentrations, the preparation is diluted with emulsifier-containing water. Leaf discs of maize (Zea mays) are sprayed with an active ingredient preparation of the desired concentration and, after drying, populated with caterpillars of the armyworm (Spodoptera frugiperda). After 7 days, the efficacy in % is determined. 100% means that all the caterpillars have been killed; 0% means that no caterpillar has been killed.

In another data set the test system is Myzus persicae. In words: Myzus persicae spray test. It is filed as in vivo. Particulars: foliar, Chinese cabbage leaf discs, after 5-6 days, read-out: efficacy. How it is done:
To produce a suitable active ingredient preparation, 1 part by weight of active ingredient is dissolved with the stated parts by weight of solvent and made up with water containing an emulsifier concentration of 1000 ppm until the desired concentration is attained. To produce further test concentrations, the preparation is diluted with emulsifier-containing water. Discs of Chinese cabbage leaves (Brassica pekinensis) infested by all stages of the green peach aphid (Myzus persicae) are sprayed with an active ingredient preparation of the desired concentration. After 5-6 days, the efficacy in % is determined. 100% means that all the aphids have been killed; 0% means that no aphids have been killed.

The subject of the next data set is Meloidogyne incognita. Description: Meloidogyne incognita test. Particulars: 20 ppm; lettuce; after 14 days. It counts as in vivo. How it is done:
To produce a suitable preparation of active ingredient, 1 part by weight of active ingredient is mixed with the stated amount of solvent and the concentrate is diluted with water to the desired concentration. Vessels are filled with sand, active ingredient solution, an egg/larvae suspension of the southern root-knot nematode (Meloidogyne incognita) and lettuce seeds. The lettuce seeds germinate and the plants develop. The galls develop on the roots. After 14 days, the nematicidal efficacy in % is determined by the formation of galls. 100% means that no galls were found; 0% means that the number of galls on the treated plants corresponds to the untreated control.

The values that follow come from US10550116B2, “Fused bicyclic heterocycle derivatives as pesticides” (BAYER CROPSCIENCE AKTIENGESELLSCHAFT, priority 2015, dated 2020).

`CCSc1nc2ccccc2nc1-c1nc2cc(C(F)(F)F)ncc2n1C` [Example I-4, 2-Ethylsulphanyl-3-[3-methyl-6-(trifluoromethyl)imidazo[4,5-c]pyridin-2-yl]quinoxaline]: in the data set with Tetranychus urticae, the pest or weed control at 100 g/ha stood at 70%. Besides, in data set [1], the chromatographic logP was found to be 4.1.

With `CCS(=O)(=O)c1ccc2nc(-c3nc4cc(C(F)(F)F)ncc4n3C)c(S(=O)(=O)CC)cc2c1` [Example I-6, 3,6-Bis(ethylsulphonyl)-2-[3-methyl-6-(trifluoromethyl)imidazo[4,5-c]pyridin-2-yl]quinoline], the pest or weed control at 500 g/ha was found to be 83% in the data set with Phaedon cochleariae, 100% with Spodoptera frugiperda and 90% in the data set with Myzus persicae. Also, the chromatographic logP in data set [1] was 2.58.

Turning to `CCS(=O)(=O)c1cc2ccc(Cl)cc2nc1-c1nc2cc(C(F)(F)F)ncc2n1C` [Example I-8, 7-Chloro-3-ethylsulphonyl-2-[3-methyl-6-(trifluoromethyl)imidazo[4,5-c]pyridin-2-yl]quinoline], the pest or weed control at 500 g/ha was 100% with Phaedon cochleariae, 100% in the data set with Spodoptera frugiperda and 90% with Myzus persicae. For the same compound, in data set [1], the chromatographic logP stood at 2.63.

With `CCS(=O)(=O)c1cc2ccccc2nc1-c1cn2cnc(C(F)(F)F)cc2n1` [Example I-11, 3-(Ethylsulphonyl)-2-[7-(trifluoromethyl)imidazo[1,2-c]pyrimidin-2-yl]quinoline], the pest or weed control at 500 g/ha was 100% with Phaedon cochleariae, 100% with Spodoptera frugiperda and 70% in the data set on Myzus persicae. The chromatographic logP in data set [1] came out at 2.63.

As to `CCS(=O)(=O)c1cc2ccccc2nc1-c1nc2cc(C(F)(F)F)cnc2o1` [Example I-13], the pest or weed control at 100 g/ha in the data set with Phaedon cochleariae amounted to 100%. Further, the pest or weed control at 500 g/ha amounted to 83% in the data set on Spodoptera frugiperda and 100% in the data set on Myzus persicae. In addition, the chromatographic logP in data set [1] was 3.27.

Consider `CCS(=O)(=O)c1cc2ccccc2nc1-c1nc2cc(SC(F)(F)F)ccc2o1` [Example I-14, 2-(3-Ethylsulphonyl-2-quinolyl)-5-(trifluoromethylsulphanyl)-1,3-benzoxazole], for which the pest or weed control at 500 g/ha stood at 100% with Phaedon cochleariae, 100% in the data set with Spodoptera frugiperda and 90% with Myzus persicae. Further, the chromatographic logP in data set [1] was 4.17.

On to `CCS(=O)(=O)c1cc2ccccc2nc1-c1nc2cc3c(cc2n1C)OC(F)(F)O3` [Example I-16, 6-(3-Ethylsulphonyl-2-quinolyl)-2,2-difluoro-7-methyl-[1,3]dioxolo[4,5-f]benzimidazole], for which the pest or weed control at 500 g/ha in the data set on Phaedon cochleariae came out at 100%; with Spodoptera frugiperda, 100%; in the data set with Myzus persicae, 90%. Also, the chromatographic logP in data set [1] was found to be 3.39.

Turning to `CCS(=O)(=O)c1cc2ccccc2nc1-c1nc2cc(S(=O)(=O)C(F)(F)F)ccc2o1` [Example I-18, 2-(3-Ethylsulphonyl-2-quinolyl)-5-(trifluoromethylsulphonyl)-1,3-benzoxazole], the pest or weed control at 100 g/ha was found to be 100% with Phaedon cochleariae, 100% in the data set with Spodoptera frugiperda, 70% in the data set on Tetranychus urticae and 100% in the data set on Myzus persicae. In addition, the chromatographic logP in data set [1] stood at 3.62.

Take `CCS(=O)(=O)c1cc2ccccc2nc1-c1nc2cc([S+]([O-])C(F)(F)F)ccc2o1` (stereo not drawn) [Example I-19, 2-(3-Ethylsulphonyl-2-quinolyl)-5-(trifluoromethylsulphinyl)-1,3-benzoxazole]: the values for the pest or weed control at 100 g/ha in the data set with Phaedon cochleariae, with Spodoptera frugiperda and with Myzus persicae were 100%, 100% and 90%, respectively. Moreover, in data set [1], the chromatographic logP is 3.05.

Consider `CCS(=O)(=O)c1cc2ccccc2nc1-c1nc2cc(SC(F)(F)F)ccc2n1C` [Example I-21, 3-Ethylsulphonyl-2-[1-methyl-5-(trifluoromethylsulphanyl)benzimidazol-2-yl]quinoline], for which the pest or weed control at 100 g/ha with Phaedon cochleariae, with Spodoptera frugiperda and in the data set with Myzus persicae was 100% in each case. Further, the pest or weed control at 20 g/ha in the data set on Tetranychus urticae was determined as 70%. The chromatographic logP in data set [1] is 3.96.

On to `CCS(=O)(=O)c1cc2ccccc2nc1-c1nc2cc(C(F)(F)F)nnc2n1C` [Example I-22], for which the pest or weed control at 100 g/ha was 100% with Spodoptera frugiperda, 90% in the data set on Tetranychus urticae and 100% with Myzus persicae.

Consider `CCS(=O)(=O)c1cc2ccccc2nc1-c1nc2cc([S+]([O-])C(F)(F)F)ccc2n1C` (stereo not drawn) [Example I-23, 3-Ethylsulphonyl-2-[1-methyl-5-(trifluoromethylsulphinyl)benzimidazol-2-yl]quinoline], for which the pest or weed control at 100 g/ha with Phaedon cochleariae, in the data set on Spodoptera frugiperda and with Myzus persicae was 100% in each case. In the data set with Tetranychus urticae, the pest or weed control at 20 g/ha was determined as 100%. For the same compound, the chromatographic logP in data set [1] came out at 2.79.

For the compound `CCSc1cc2ccccc2nc1-c1nc2cc(SC(F)(F)F)ccc2o1` [Example I-29, 2-(3-Ethylsulphanyl-2-quinolyl)-5-(trifluoromethylsulphanyl)-1,3-benzoxazole], the pest or weed control at 100 g/ha in the data set on Tetranychus urticae stood at 70%. Further, the chromatographic logP in data set [1] stood at 5.43.

Take `CCSc1cc2ccccc2nc1-c1nc2cc(C(F)(F)F)ccc2o1` [Example I-32]: the “nematicidal efficacy (formation of galls)” value in the data set with Meloidogyne incognita was 100%.

Consider `CCSc1cc2ccccc2nc1-c1nc2cc(SC(F)(F)F)ccc2n1C` [Example I-34, 3-Ethylsulphanyl-2-[1-methyl-5-(trifluoromethylsulphanyl)benzimidazol-2-yl]quinoline], for which the pest or weed control at 100 g/ha in the data set with Tetranychus urticae worked out at 100%. Also, the chromatographic logP in data set [1] was determined as 4.63.

Regarding `CC[S+]([O-])c1cc2ccccc2nc1-c1nc2cc3c(cc2[nH]1)OC(F)(F)O3` (stereo not drawn) [Example I-36], in the data set on Tetranychus urticae, the pest or weed control at 100 g/ha worked out at 90%.

`CCSc1cc2ccccc2nc1-c1nc2cc(C(F)(F)C(F)(F)F)cnc2n1C` [Example I-37]: the pest or weed control at 100 g/ha in the data set on Tetranychus urticae came out at 90%.

For `CCSc1cnc2nc(-c3nc4cc(C(F)(F)F)ncc4n3C)c(SCC)cc2c1` [Example I-40, 3,6-Bis(ethylsulphanyl)-2-[3-methyl-6-(trifluoromethyl)-3H-imidazo[4,5-c]pyridin-2-yl]-1,8-naphthyridine], in the data set with Tetranychus urticae, the pest or weed control at 20 g/ha came out at 70%. Besides, the chromatographic logP in data set [1] turned out to be 3.23. Moreover, in the data set with Meloidogyne incognita, the “nematicidal efficacy (formation of galls)” value is 90%.

As for `CCSc1c(-c2nc3cc(C(F)(F)F)ncc3n2C)ncc2ccccc12` [I′-42], the figures for the pest or weed control at 500 g/ha in the data set on Tetranychus urticae (500 g/ha) and in the data set with Myzus persicae were 70% and 90%, respectively.

Consider `CCS(=O)(=O)c1c(-c2nc3cc(C(F)(F)F)ncc3n2C)ncc2ccccc12` [I′-44], for which the pest or weed control at 500 g/ha in the data set with Phaedon cochleariae amounted to 83%; in the data set on Spodoptera frugiperda, 100%; in the data set with Myzus persicae, 90%.
